The values below come from PMC7529555 (Thoracic Cancer, 2020).

One series concerns wild-type EGFR. Conditions: cited from earlier work.
Series [1] concerns osimertinib metabolism in rat liver microsomes. Nature of the series: Inhibition by avitinib of osimertinib metabolism in rat liver microsomes. Conditions: pH 7.4, probe osimertinib 0.01 μM. The series is classed as in vitro ADME. For orientation: Liver microsomes are a subcellular fraction often used to study metabolism.
The subject of series [2] is rat liver microsomes (RLM). Nature of the series: Metabolic stability of osimertinib in RLMs. Conditions: osimertinib incubation with RLMs. The format is in vitro ADME.
Series [3] can be described thus: Metabolic stability of osimertinib in RLMs. The series is classed as in vitro ADME, rat. Conditions: rat, rat liver microsomes, pH 7.4.
The nature of series [4]: Pharmacokinetics of osimertinib in rats after pretreatment with avitinib. The format is in vivo, Sprague-Dawley rats.
Where [5] appears, read: avitinib multiple doses group vs control.
Where [6] appears, read: avitinib single dose group vs control.

In general, IC50 refers to the midpoint of a concentration-inhibition curve. With `C=CC(=O)Nc1cccc(Oc2nc(Nc3ccc(N4CCN(C)CC4)c(F)c3)nc3[nH]ccc23)c1` [avitinib], in the series on wild-type EGFR, the “effect on wild-type EGFR” value is reported as “no effects”. For the same molecule, in series [1], the IC50 was found to be 27.6 µM.

In general, half-life refers to the time in which the quantity being followed falls by half. The low end stands for rapid decline, the high end for slow decline. `C=CC(=O)Nc1cc(Nc2nccc(-c3cn(C)c4ccccc34)n2)c(OC)cc1N(C)CCN(C)C` [osimertinib]: the “inhibitory effect on the wild-type EGFR protein” value in the series with wild-type EGFR was “weak inhibitory effect”. Moreover, in series [2], the “Slope (Ln remaining percent vs incubation time)” value turned out to be 0.02062. This molecule gave a half-life at 0.01 μM in series [3] of 33.6 min. Moreover, in series [4] (setting [5]), the “decrease of CLz/F vs control” value is 52%, the “increase of AUC(0-t) vs control” value is listed as 1.91 fold, the “increase of AUC(0-∞) vs control” value was 1.92 fold and the “increase of Cmax vs control” value is reported as 1.66 fold. Besides, in series [4] (setting [5]), the “increase of MRT(0-t) vs control” value was 1.39 fold and the “increase of Tmax vs control” value worked out at 1.74 fold. For the same molecule, in series [4] (setting [6]), the “decrease of CLz/F vs control” value is reported as 44%, the “increase of AUC(0-t) vs control” value is listed as 2.35 fold, the “increase of AUC(0-∞) vs control” value came out at 2.38 fold and the “increase of Cmax vs control” value is recorded as 1.72 fold. Also, in series [4] (setting [6]), the “increase of MRT(0-t) vs control” value worked out at 1.31 fold and the “increase of Tmax vs control” value was 1.48 fold.
